Test results as given in US10421971B2, “Anti-tumor therapy” (The University of Chicago, priority 2014, dated 2019).

Key:
[1] = test system: MC38 tumors; experiment: MC38 tumor growth after local radiation in mice; type: in vivo, mouse; settings: 20 Gy, 10 μg intratumorally on day 2 and 6 after radiation, FIG. 21A, 21B
Method: (§1) 1×10^6 MC38 tumor cells were subcutaneously injected into the flank of mice. Tumor volumes were measured along three orthogonal axes (a, b, and c) and calculated as tumor volume=abc/2. Tumors were allowed to grow for 9-10 days and treated by local radiation (Deng et al., 2014). Briefly, the body was protected with a lead cover and the tumor was exposed, allowing local radiation. Tumors were irradiated using RS-2000 Biological Irradiator (RAD SOURCE) at the dose of 20 Gy with 160 kV and 25 mA. For type I IFN blockade experiments, 200 μg anti-IFAR1 mAb was intratumorally injected on day 0 and 2 after radiation. For HMGB-1 blockade experiments, 200 μg anti-HMGB-1 mAb (clone 3B1, generated by inventors) was administered i.p. on day 0 and 3 after radiation. For CD8^+ T cell depletion experiments, […] anti-CD8 mAb (Clone 2.43, BioXCell) was delivered 5 times by i.p. injection every three days starting one day before radiation. For exogenous IFN-β treatment experiments, 1×10^10 viral particles of Ad-IFN-β (Burnette, B., et al., The Efficacy of Radiotherapy Relies upon Induction of Type I Interferon-Dependent Innate and Adaptive Immunity, Cancer Res Apr. 1, 2011 71; 2488; (doi: 10.1158/0008-5472.CAN-10-2820)) were intratumorally administered on day 2 after radiation. Ad-null was used as negative control. […]

[2] = test system: tumor-specific CD8+ T cells; experiment: ELISPOT of tumor-specific IFN-γ-secreting CD8+ T cells from tumor draining lymph nodes after radiation; type: in vivo, mouse
Method: as §1

[3] = test system: IFNβ promoter; experiment: IFNβ promoter dual-luciferase reporter assay (IFNβ-Luc / pRL-SV40) in HEK293 cells; type: cell-based, human; settings: versus shNT, FIG. 6A
Excerpt: To measure IFNβ promoter activity, HEK293 cells were transiently co-transfected using Fugene (Roche) with pGL3-Ifnβ-Luc (Lin R, Genin P, Mamane Y, & Hiscott J (2000) Selective DNA binding and association with the CREB binding protein coactivator contribute to differential activation of alpha/beta interferon genes by interferon regulatory factors 3 and 7. Molecular and cellular biology 20(17):6342-6353) and an expression plasmid carrying the Renilla luciferase gene driven by the SV40 promoter (Promega). […] The following day, cells were irradiated at indicated dose and collected at indicated time in passive lysis buffer (Promega). Firefly and Renilla luciferase activities were measured using a dual-luciferase assay system (Promega). For siRNAs experiments, siRNA against LGP2 (see above) or non-targeting (Dharmacon) were transfected with RNAimax 24 h prior to transfection of luciferase/Renilla plasmids. Mean luciferase values were normalized and quantified from duplicate runs for each of at least three separate experiments.
We next assessed the role of LGP2 in regulating the IR-induced IFNβ response. HEK293 cells were transduced with lentiviral shRNA to stably reduce the levels of LGP2 or control non-targeting (shNT). Stably transduced cells were co-transfected with IFNβ-Luc and pRL-SV40, mock-treated or exposed to 6 or 12 Gy and collected 72 hrs after IR.

[4] = test system: BMDCs; experiment: BMDC cross-priming of 2C CD8+ T cells after stimulation with irradiated MC38-SIY tumor cells (IFN-γ ELISPOT); type: cell-based, mouse
Method: Single-cell suspensions of bone marrow cells were obtained from C57BL/6J, STING^−/− and IRF3^−/− mice. Bone marrow from cGAS^−/− mice was kindly provided by Dr. Zhijian J. Chen of University of Texas Southwestern Medical Center, Dallas. The cells were placed in 10 cm petri dish and cultured in RPMI-1640 medium containing 10% fetal bovine serum (DENVILLE), supplemented with 20 ng/ml GM-CSF. Fresh media with GM-CSF was added into culture on day 3. BMDCs (bone marrow-derived dendritic cells) were harvest for stimulation assay on day 7. 8×10^6 MC38-SIY^hi cells were plated into 10 cm cell culture dishes overnight, and then pretreated with 40 Gy and incubated for 5 hours. BMDCs were added and co-cultured with MC38-SIY^hi cells at the ratio of 1:1 in the presence of fresh GM-CSF for additional 8 hours. Subsequently purified CD11c cells with EasySep™ Mouse CD11c Positive Selection Kit II (STEMCELL) were incubated with isolated CD8^+ T cells from naive 2 C mice for three days. For the bypassing assay, 10 ng/ml murine IFN-β was added in the co-culture of BMDCs and tumor cells, or 100 μg/ml DMXAA was added into isolated CD11c^+ cells with additional 3 h incubation. For IFN-β detection, BMDCs were co-cultured with tumor cells at the ratio of 1:1 for additional 8 hours, and 1×10^6 cells/ml purified CD11c^+ cells were seed into 96-well plates for 48 hours.
For bone-marrow CD11c^+ cells functional assay, 2×10^4 purified CD11c^+ cells with were incubated with isolated CD8^+ T cells from naive 2 C mice with EasySep™ Mouse CD8a Positive Selection Kit (STEMCELL) for three days at the ratio of 1:10. For tumor-specific CD8^+ T cells functional assay, eight days after radiation, tumor DLNs were removed and CD8^+ T cells were purified. MC38 tumor cells were exposed to 20 ng/ml murine IFN-γ for 24 hr prior to plating with purified CD8^+ T. 2×10^5 CD8^+ T cells were incubated with MC38 at the ratio of 10:1 for 48 hours. 96-well HTS-IP plate (Millipore) was pre-coated with 2.5 μg/ml anti-IFN-γ antibody (clone R4-6A2, BD Pharmingen) overnight at 4° C. […]

Compound: Nc1nc2c(ncn2[C@@H]2O[C@@H]3COP(=O)(O)O[C@H]4[C@@H](O)[C@H](n5cnc6c(N)ncnc65)O[C@@H]4COP(=O)(O)O[C@@H]2[C@@H]3O)c(=O)[nH]1 [2′3′-cGAMP, cyclic [G(2′,5′)pA(3′,5′)p]]
- synergy with radiation on tumor burden ([1]; STING−/− mice): abrogated
- tumor burden, combination with radiation ([1]; WT mice, versus either treatment alone): effectively reduce tumor burden
- antitumor CD8+ T cell response induced by the combination with radiation ([2]; STING−/− host, FIG. 21D): dampened
- number of tumor-specific IFN-γ-producing CD8+ T cells in DLNs, combination with radiation ([2]; WT mice, 10 μg intratumorally on day 2 after 20 Gy, DLNs day 8, versus radiation or 2′3′-cGAMP alone, FIG. 21C): significantly increased

Compound: LGP2 shRNA: lentiviral pLKO.1 shRNA against LGP2, SEQ ID NO:3 ATTCTTGCGGTCATCGAACAG, Thermo Scientific
- IR-induced IFNβ reporter activity ([3]; HEK293, 6 or 12 Gy, 72 hrs after IR): greatly increased
- IFNβ reporter activity ([3]; HEK293, mock-treated): significant increase

Compound: siRNA-cGAS: Mission siRNA against murine cGAS, 5′-GAGGAAAUCCGCUGAGUCAdTdT-3′ (SEQ ID NO:8), Sigma (GAGGAAAUCCGCUGAGUCADTDT; dTdT 3' overhang, further chemistry not given here)
- function of DCs (cross-priming of CD8+ T cells) ([4]; BMDCs transfected with 50 nM siRNA, versus non-target control, stimulated with irradiated tumor cells, FIG. 19B): greatly diminished

Compound: Cc1ccc2c(=O)c3cccc(CC(=O)O)c3oc2c1C [DMXAA]
- function of STING−/− BMDCs (cross-priming of CD8+ T cells) ([4]; STING−/− BMDCs stimulated with irradiated tumor cells, 10 ng/ml IFN-β or 100 μg/ml DMXAA, FIG. 18C): fails to rescue
- function of cGAS−/− BMDCs (cross-priming of CD8+ T cells) ([4]; cGAS−/− BMDCs stimulated with irradiated tumor cells, 10 ng/ml IFN-β or 100 μg/ml DMXAA, FIG. 19D): restored
